Results on one compound are retold here after patent US20200308622A1, “Phage-Mediated Molecular Detection Methods and Related Aspects” (United States of America as represented by the Secretary of …, priority 2017, published 2020).

Assay [1] relates to MSSA strain RN4220. Kind of assay: PMMD (phage K RT-qPCR) antibiotic sensitivity assay, MSSA. Type of assay: cell-based, Staphylococcus aureus. Particulars: cefoxitin 4 μg/ml, with vs without fox, phage K gp125 RNA qPCR. As to the method: (§1) Staphylococcus aureus (S. aureus) bacterial cultures were grown for one hour in LB-Lennox (10 g/l Tripone, 5 g/l yeast extract and 5 g/l NaCl) media at 37° C. with strong aeration (225 rpm shaking). For antibiotic sensitivity assays the cultures were grown for one or three hours, as indicated, and cefoxitin (Sigma-Aldrich) was added at a final concentration of 4 μg/ml using a 1,000× stock in water.
(§2) The reactions were performed by mixing 50 μl of S. aureus bacterial cultures (˜2×10^9 cfu/ml) and 50 μl of a phage K lysate ( about 5×10^8 pfu/ml) or 1 μl of CsCl gradient purified phage K (about 1×10^10 pfu/ml). The mixtures were incubated on ice for 3-4 minutes and the infections were allowed to proceed for 10 minutes, unless indicated otherwise, at 37° C. with shaking (400 rpm). Five minutes prior to the end of the incubation, lysostaphin (Sigma-Aldrich) w as added from a 20× stock (2 mg/ml).
(§3) Single-step fluorescent quantitative or real-time PCR (qPCR) was done with Luna one-step RT-qPCR kit (NEB) using low profile clear 0.2 ml PCR tubes and optical ultraclear flat caps (BioRad). The reactions were run in a CFX96 real-time PCR detection system (BioRad) with CFX Manager 3. Quantification cycle values (Cqs) were auto calculated by the software, and ranged front about […]. […] 10 minutes/35× (95° C. 10 seconds, 60° C. 30 seconds, plate read). […]

Assay [2] concerns MRSA strain SA-1012.COI. Put plainly: PMMD (phage K RT-qPCR) antibiotic sensitivity assay, MRSA. It counts as cell-based, Staphylococcus aureus. To be noted: cefoxitin 4 μg/ml, with vs without fox, phage K gp125 RNA qPCR. As to the method:
as §1, §2, §3

Take `CO[C@@]1(NC(=O)Cc2cccs2)C(=O)N2C(C(=O)O)=C(COC(N)=O)CS[C@@H]21` [fox, cefoxitin]: the “increase of Cq values on addition of fox in the media” value in assay [1] (one hour of incubation) is “about 1.5”; in assay [1] (three hours of incubation), “about 11.5”. Further, the “Cq increase in the presence of fox” value in assay [2] (one hour of incubation) is on record as “about 1.0”; in assay [2] (three hours of incubation), “about 0.0”.
